Patent publication US10874743B2, “IRAK degraders and uses thereof” (Kymera Therapeutics, Inc., priority 2017, dated 2020)
One block for each molecule: values may come before it.

Key:
[1] = biological target: CRBN-DDB1 / GST-IRAK4 ternary complex (Homo sapiens, UniProt Q96SW2+Q9NWZ3); assay: AlphaLISA assay to determine ternary complex formation; format: binding
Protocol: The assay mixture contains 100 nM CRBN-DDB1, 100 nM GST-IRAK4, 20 μg/mL Nickle Chelate Donor Bead (Perkin Elmer Catalog # AS101D) and 20 μg/mL GSH Acceptor Bead (Perkin Elmer Catalog # AL109C) in a buffer containing 50 mM HEPES, pH 7.5, 100 mM NaCl, 0.1% BSA, 2 mM TCEP, 0.05% Tween-20. […] AlphaLISA signals (Excitation 680 nm and emission 615 nm) were recorded on a Perkin Elmer EnVision 2104 Multilabel reader. The raw data was converted to the relative amount of ternary complex formation by normalization to the signal generated by His-tagged GST protein only. The final data points were plotted and the curves were fit using non-linear regression using GraphPad Prism software.

IRAK4 [2] = biological target: T1, IRAK4 (Homo sapiens, UniProt Q9NWZ3); assay: OCI-LY-10 degradation assay (western blot, % IRAK4 degraded after 4 hours); format: cell-based; design: endogenous in cells; host or cells: OCI-LY10; conditions: OCI-LY10 cells, IRAK4 degraded after 4 hours, western blot
T1 sequence (Q9NWZ3 1-460): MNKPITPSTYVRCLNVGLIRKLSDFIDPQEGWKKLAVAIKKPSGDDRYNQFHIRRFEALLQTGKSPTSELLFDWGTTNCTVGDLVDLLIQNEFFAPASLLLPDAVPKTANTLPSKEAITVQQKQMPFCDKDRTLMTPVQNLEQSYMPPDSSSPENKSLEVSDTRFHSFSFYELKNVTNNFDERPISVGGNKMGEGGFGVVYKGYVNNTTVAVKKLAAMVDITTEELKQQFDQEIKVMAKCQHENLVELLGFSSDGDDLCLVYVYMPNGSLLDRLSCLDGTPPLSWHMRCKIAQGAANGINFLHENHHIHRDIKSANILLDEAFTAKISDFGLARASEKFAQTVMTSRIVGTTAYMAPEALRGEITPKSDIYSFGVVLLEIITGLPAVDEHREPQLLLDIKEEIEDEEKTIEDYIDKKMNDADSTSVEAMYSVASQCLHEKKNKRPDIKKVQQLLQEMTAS
Outline: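 IRAK4 loss after 4 h at 37° C was scored A (>50%), B (>20-50%) or C (<20%) from infrared western blots of RIPA lysates, 20-25 μg protein per lane. Compound was applied at 0.003-10 μM final to OCI-LY10 cells cultured in RPMI-1640 with 20% FBS and 55 μM 2-ME.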

IRAK4 [3] = biological target: T1, IRAK4; assay: PBMC degradation assay (western blot, % IRAK4 degraded after 4 hours); format: cell-based; conditions: human PBMCs
Protocol: Protocol summary of PBMC degradation studies from compound treatment through quantitation.
PBMC culture medium: Human peripheral blood mononuclear cells (PBMCs): RPMI+10% FBS (Heat-inactivated)+1% P/S.
Cells were cultured at a minimum of 2.5×10^6 c/mL. • PBMCs were incubated @ 37° C./5% CO2 and allowed to rest overnight. • Following overnight recovery, a cell count/viability assessment by trypan blue exclusion was performed. Cells densities were adjusted back to 2.5×10^6 c/mL (proceed with plating only if viability >80%). • In a 6 well plate, 2.0 mL of cells were added to each well for a minimum of 5×10^6 CT per treatment condition. Compounds dilutions were prepared from 20 mM stock and were added at a final 1000× dilution (0.1% DMSO concentration). • At the end of treatment, cells were harvested and spun @ 1800 rpm for 5 min. 1×PBS wash and spun again @ 1800 rpm for 5 min. Cell pellets were frozen and stored at −80° C. until further processing. • Lysates were generated by resuspending in lysis buffer. Protein quantification was performed with a BCA kit. • 20 μg of protein were loaded per lane and run on a 26-well 4-12% Bis-Tris SDS-page gel. • Transfers were performed on PVDF membranes using the BioRad Mixed MW turbo program for 7 min. • Membranes were blocked for one hour on a rocker at room temperature. • Primary antibodies were incubated overnight at 4° C. on a rocker. • Membranes were washed 3×TBST, 5 min each. • Secondaries were added and incubated for one hour on a rocker at room temperature. • Membranes were washed 3×TBST, 5 min each and rinsed well with deionized H2O. Membranes were scanned using the Licor Odessey CLx and bands were quantified using Image Studio Lite Version 5.2 software.
PBMC results at 4 hours. The letter codes indicate the percentage of IRAK4 degraded after 4 hours: A (>50% degradation), B (>20-50% degradation) and C (<20% degradation)

Chain of CRBN-DDB1 / GST-IRAK4 ternary complex (Q96SW2 whole entry, one chain of several): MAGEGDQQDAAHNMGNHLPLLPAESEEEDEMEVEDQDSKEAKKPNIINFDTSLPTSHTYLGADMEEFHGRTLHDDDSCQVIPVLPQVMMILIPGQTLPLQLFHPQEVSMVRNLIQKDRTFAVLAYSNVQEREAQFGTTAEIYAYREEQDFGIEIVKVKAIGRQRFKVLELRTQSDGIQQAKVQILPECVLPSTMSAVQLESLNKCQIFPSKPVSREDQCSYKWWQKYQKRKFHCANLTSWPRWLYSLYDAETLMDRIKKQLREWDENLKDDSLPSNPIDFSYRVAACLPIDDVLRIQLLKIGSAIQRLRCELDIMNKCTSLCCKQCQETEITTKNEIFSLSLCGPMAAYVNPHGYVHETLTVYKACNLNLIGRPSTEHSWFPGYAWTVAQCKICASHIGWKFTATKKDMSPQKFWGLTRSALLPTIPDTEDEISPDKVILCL
Chain of CRBN-DDB1 / GST-IRAK4 ternary complex (Q16531 whole entry partner, one chain of several): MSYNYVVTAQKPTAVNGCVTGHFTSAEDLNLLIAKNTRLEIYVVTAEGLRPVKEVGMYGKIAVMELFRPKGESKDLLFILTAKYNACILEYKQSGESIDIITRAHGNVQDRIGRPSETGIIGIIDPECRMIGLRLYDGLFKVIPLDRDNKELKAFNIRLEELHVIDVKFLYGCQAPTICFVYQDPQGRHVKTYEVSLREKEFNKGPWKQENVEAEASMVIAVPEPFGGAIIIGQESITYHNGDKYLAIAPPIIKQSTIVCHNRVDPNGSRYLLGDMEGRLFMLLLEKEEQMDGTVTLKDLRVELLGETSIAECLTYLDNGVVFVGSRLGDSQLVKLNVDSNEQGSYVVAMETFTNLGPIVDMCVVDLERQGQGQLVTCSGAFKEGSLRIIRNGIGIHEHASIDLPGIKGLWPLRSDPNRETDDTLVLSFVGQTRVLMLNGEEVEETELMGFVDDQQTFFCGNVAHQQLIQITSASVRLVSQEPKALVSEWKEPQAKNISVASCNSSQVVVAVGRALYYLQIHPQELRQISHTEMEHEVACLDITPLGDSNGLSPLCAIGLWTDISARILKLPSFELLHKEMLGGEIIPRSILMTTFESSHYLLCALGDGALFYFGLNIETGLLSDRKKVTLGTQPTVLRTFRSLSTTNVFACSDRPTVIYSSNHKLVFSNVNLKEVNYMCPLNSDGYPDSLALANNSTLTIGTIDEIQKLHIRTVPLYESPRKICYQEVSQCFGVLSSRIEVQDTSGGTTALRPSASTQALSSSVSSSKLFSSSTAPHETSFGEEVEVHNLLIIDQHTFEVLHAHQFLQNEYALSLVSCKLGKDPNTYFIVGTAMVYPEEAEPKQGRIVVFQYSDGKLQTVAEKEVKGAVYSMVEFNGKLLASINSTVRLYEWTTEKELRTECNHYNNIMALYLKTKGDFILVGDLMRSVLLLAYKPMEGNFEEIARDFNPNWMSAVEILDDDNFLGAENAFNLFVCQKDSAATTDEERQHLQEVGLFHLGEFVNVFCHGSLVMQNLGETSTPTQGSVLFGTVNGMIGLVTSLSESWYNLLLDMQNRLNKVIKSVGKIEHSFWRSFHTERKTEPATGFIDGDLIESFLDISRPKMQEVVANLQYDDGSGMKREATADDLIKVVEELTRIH

Average % Ternary Complex (N = 2) ([1]; compound concentration 1.00E−07 M): 4.16%
Average % Ternary Complex (N = 2) ([1]; compound concentration 1.25E−08 M): 0.76%
Average % Ternary Complex (N = 2) ([1]; compound concentration 1.28E−05 M): 0.61%
Average % Ternary Complex (N = 2) ([1]; compound concentration 1.60E−06 M): 0.67%
Average % Ternary Complex (N = 2) ([1]; compound concentration 2.00E−07 M): 6.15%
Average % Ternary Complex (N = 2) ([1]; compound concentration 2.50E−08 M): 1.05%
Average % Ternary Complex (N = 2) ([1]; compound concentration 3.20E−06 M): 0.57%
Average % Ternary Complex (N = 2) ([1]; compound concentration 4.00E−07 M): 4.22%
Average % Ternary Complex (N = 2) ([1]; compound concentration 5.00E−08 M): 2.54%
Average % Ternary Complex (N = 2) ([1]; compound concentration 6.25E−09 M): 0.55%
Average % Ternary Complex (N = 2) ([1]; compound concentration 6.40E−06 M): 0.5%
Average % Ternary Complex (N = 2) ([1]; compound concentration 8.00E−07 M): 1.25%
OCI-LY10 % IRAK4 Degradation (IRAK4 [2]): B (>20-50% degradation)
SMILES: NC(=O)c1nn(-c2cccc(C(=O)NCCOCCOCCNc3cccc4c3C(=O)N(C3CCC(=O)NC3=O)C4=O)c2)cc1NC(=O)c1coc(-c2ccnc(NCC(F)(F)F)c2)n1 (stereo not drawn) [I-135]

PBMC % IRAK4 Degradation (IRAK4 [3]): A (>50% degradation)
SMILES: NC(=O)c1nn(-c2ccc(C(=O)NCc3cn(CCCNc4cccc5c4C(=O)N(C4CCC(=O)NC4=O)C5=O)nn3)cc2)cc1NC(=O)c1coc(-c2ccnc(NCC(F)(F)F)c2)n1 (stereo not drawn) [I-180, N-[3-carbamoyl-1-[4-[[1-[3-[[2-(2,6-dioxo-3-piperidyl)-1,3-dioxo-isoindolin-4-yl]amino]propyl]triazol-4-yl]methylcarbamoyl]phenyl]pyrazol-4-yl]-2-[2-(2,2,2-trifluoroethylamino)-4-pyridyl]oxazole-4-carboxamide]

PBMC % IRAK4 Degradation (IRAK4 [3]): B (>20-50% degradation)
SMILES: NC(=O)c1nn(-c2ccc(C(=O)NCCc3cn(CCCNc4cccc5c4C(=O)N(C4CCC(=O)NC4=O)C5=O)nn3)cc2)cc1NC(=O)c1coc(-c2ccnc(NCC(F)(F)F)c2)n1 (stereo not drawn) [I-181, N-[3-carbamoyl-1-[4-[2-[1-[3-[[2-(2,6-dioxo-3-piperidyl)-1,3-dioxo-isoindolin-4-yl]amino]propyl]triazol-4-yl]ethylcarbamoyl]phenyl]pyrazol-4-yl]-2-[2-(2,2,2-trifluoroethylamino)-4-pyridyl]oxazole-4-carboxamide]

PBMC % IRAK4 Degradation (IRAK4 [3]): B (>20-50% degradation)
SMILES: NC(=O)c1nn(-c2ccc(C(=O)NCCCn3cc(CNc4cccc5c4C(=O)N(C4CCC(=O)NC4=O)C5=O)nn3)cc2)cc1NC(=O)c1coc(-c2ccnc(NCC(F)(F)F)c2)n1 (stereo not drawn) [I-183, N-[3-carbamoyl-1-[4-[3-[4-[[[2-(2,6-dioxo-3-piperidyl)-1,3-dioxo-isoindolin-4-yl]amino]methyl]triazol-1-yl]propylcarbamoyl]phenyl]pyrazol-4-yl]-2-[2-(2,2,2-trifluoroethylamino)-4-pyridyl]oxazole-4-carboxamide]

SMILES: O=C1CCC(N2C(=O)c3cccc(NCCOCCOCCNCc4ccc(-n5cc(NC(=O)c6coc(-c7ccnc(NCC8CC8)c7)n6)c(C(F)(F)F)n5)cc4)c3C2=O)C(=O)N1 (stereo not drawn) [I-185, 3-2-(2-((Cyclopropylmethyl)amino)pyridin-4-yl)-N-(1-(4-(((2-(2-(2-((2-(2,6-dioxopiperidin-3-yl)-1,3-dioxoisoindolin-4-yl)amino)ethoxy)ethoxy)ethyl)amino)methyl)phenyl)-3-(trifluoromethyl)-1H-pyrazol-4-yl)oxazole-4-carboxamide]
PBMC % IRAK4 Degradation (IRAK4 [3]): A (>50% degradation)

PBMC % IRAK4 Degradation (IRAK4 [3]): C (<20% degradation)
SMILES: O=C1CCC(N2C(=O)c3cccc(NCCOCCOCCNCc4cccc(-n5cc(NC(=O)c6coc(-c7ccnc(NCC8CC8)c7)n6)c(C(F)(F)F)n5)c4)c3C2=O)C(=O)N1 (stereo not drawn) [I-186, 2-[2-(Cyclopropylmethylamino)-4-pyridyl]-N-[1-[3-[[2-[2-[2-[[2-(2,6-dioxo-3-piperidyl)-1,3-dioxo-isoindolin-4-yl]amino]ethoxy]ethoxy]ethylamino]methyl]phenyl]-3-(trifluoromethyl)pyrazol-4-yl]oxazole-4-carboxamide]
